Like-named read-outs stand apart in the source and are kept apart here.

The subject of one series is HeLa-CD4 cells. Kind of series: MTT mitochondrial metabolic activity (cell viability). It counts as cell-based.
Series [1] in a line: Mouse mini-PK, plasma levels by LC-MS/MS. It counts as in vivo, C57Bl-6 mice. The protocol: In vitro studies compared murine and human hepatic microsomes (150 donor mixed male/female pool). […] C57B16 mice were dosed at 10 mg/kg and drug levels were quantitated in plasma at 1, 6, and 24 h by LC-MS/MS (Table 1B).
The test system of another series is HIV. Kind of series: Viral RNA release from CD4+ T cells of aviremic (HAART) subjects, ultrasensitive RT-PCR. It counts as cell-based, human. On the procedure: All patients provided written informed consent, according to the guidelines of the ethics committee of the Oregon Health and Science University. […] Viral production was measured in the supernatant by a sensitive in-house ELISA specific for the viral capsid protein, p24. […] Viral production was measured by quantification of viral particle-associated RNA by ultra-sensitive two-step quantitative real-time reverse transcription-PCR (RT-qPCR). Briefly, viral particles in the cell culture supernatant were pelleted by centrifugation (60 min, 25000 g at 4° C.). To generate the standard curve, a sample of LAI-HIV with known titer was pelleted in the same run. […]
Total viral RNA was reverse-transcribed into cDNA with gag gene-specific primers (25 pmol each), LM667 and GagR according to manufacturer's instructions (RT-PCR One Step kit—Invitrogen). Pre-amplified products were diluted in DNase-RNase free water, then subjected to quantitative real-time PCR on Rotor-Gene Q (Qiagen) in a reaction 25 pmol of the sense primer Lambda T, 25 pmol of the antisense primer AA55M, and 4 pmol of each hybridization probes (TIB MolBiol).
Total viral RNA (17 μL) was first treated with 1 unit DNase I (Invitrogen) for 10 min at 25° C. followed by DNase I inactivation with 1 μL 25 mM EDTA for 10 min at 65° C. Total viral RNA was then reverse-transcribed into cDNA for quantitative PCR analysis. […]

Regarding `CN(C)[C@H]1C[C@@]23CC[C@@]4(O2)C(=CC[C@]2(C)C(c5ccc6ccncc6c5)=CC[C@H]24)C=C3[C@@H](O)[C@@H]1O` [dCA, didehydro-Cortistatin A], the CC50 came to 20 µM in the series on HeLa-CD4 cells and 20 µM in the series on HeLa-CD4 cells (cultured cell lines or freshly isolated PBLs, read-out: cytotoxic concentration (CC50)). Further, the “drug levels relative to the EC50 of cell-based assays” value in series [1] (1 h after dosing, 10 mg/kg) is “greater than 1000 fold”. In series [1] (24 h post dose, 10 mg/kg), the “plasma drug levels for all mice” value was “above 30 nM”. In addition, in series [1] (after 24 h treatment, 10 mg/kg), the health of mice entry is “still healthy”. The bioavailability in mice result in series [1] (mouse, in vivo) is on record as “good bioavailability”. In addition, in the series on HIV (at the concentrations used), the “viability of the cells” value is “did not affect the viability”. Besides, the “reduction of viral production” value in the series on HIV (day 6, in the presence of ARVs, no IL-2) is reported as 99.7%.

The values are drawn from patent US9682994B2, “Inhibitors of retroviral replication” (The Scripps Research Institute, priority 2011, dated 2017).
